Measurements taken from the NIST ThermoML archive (doi:10.1021/je200766t).
± gives the expanded uncertainty stated by the source.

Conditions: Liquid, Closed cell (Static) method

OCCCO [propan-1,3-diol]
Conditions | vapor or sublimation pressure [kPa]
313.2 K | 0.0111 ± 0.0008
323.26 K | 0.026 ± 0.0017
333.23 K | 0.0574 ± 0.0036
343.16 K | 0.12 ± 0.007
351.33 K | 0.221 ± 0.014
361.61 K | 0.43 ± 0.026
362.97 K | 0.462 ± 0.028
371.65 K | 0.785 ± 0.017
381.7 K | 1.395 ± 0.03
391.7 K | 2.376 ± 0.049
391.73 K | 2.374 ± 0.049
401.64 K | 3.883 ± 0.079
411.71 K | 6.212 ± 0.13
421.69 K | 9.628 ± 0.2
431.74 K | 14.62 ± 0.096
441.73 K | 21.63 ± 0.14
451.78 K | 31.44 ± 0.2
461.85 K | 44.81 ± 0.29

OCC(O)CO [glycerol]
Conditions | vapor or sublimation pressure [kPa]
351.8 K | 0.00583 ± 0.00043
362.02 K | 0.0129 ± 0.0009
372.06 K | 0.0258 ± 0.0017
382.08 K | 0.0544 ± 0.0034
392.18 K | 0.102 ± 0.006
402.16 K | 0.18 ± 0.011
412.24 K | 0.315 ± 0.019
422.28 K | 0.534 ± 0.032
432.45 K | 0.981 ± 0.021
452.64 K | 2.747 ± 0.02
462.86 K | 4.099 ± 0.029
